What was measured:
[1] = system: OPM-2 human multiple myeloma cell line; test: Cell Viability Assay (OPM-2 10 FBS); assay type: cell-based; conditions: OPM-2 cells, 16 h, CellTiter-Glo
Summary of the method: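 ATP-based luminescence (CellTiter-Glo) measured after a 16 h compound treatment of OPM-2 cells seeded at 3000 cells/well in 10% FBS medium. IC50 values derived by 4-parameter logistic fitting of serial dilutions.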

[2] = molecular target: T1, Mcl-1/Bim interaction, recombinant human Mcl-1 (171-327) (Homo sapiens, UniProt Q07820); test: Cell free Mcl-1: Bim Affinity Assay (Mcl-1 HTRF); assay type: binding; conditions: cell free Mcl-1:Bim TR-FRET, recombinant human Mcl-1 (171-327)
T1 construct: made in house
Summary of the method: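 Read-out is time-resolved FRET after overnight incubation, using a biotin-labelled peptide from human Bim (51-76) as the binding partner; IC50 was derived from competition curves.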

T1 sequence (Q07820 171-327): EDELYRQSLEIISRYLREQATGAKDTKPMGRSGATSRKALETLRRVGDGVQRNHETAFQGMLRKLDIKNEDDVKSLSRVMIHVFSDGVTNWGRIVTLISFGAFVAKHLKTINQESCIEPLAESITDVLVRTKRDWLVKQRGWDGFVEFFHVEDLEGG

C[C@@H]1[C@@H](C)C/C=C/[C@H](OCCN2CCCC(F)(F)C2)[C@@H]2CC[C@H]2CN2C[C@@]3(CCCc4cc(Cl)ccc43)COc3ccc(cc32)C(=O)NS1(=O)=O [Example 515, (1S,3′R,6′R,7′S,8′E,11′S,12′R)-6-chloro-7′-(2-(3,3-difluoro-1-piperidinyl)ethoxy)-11′,12′-dimethyl-3,4-dihydro-2H,15′H-spiro[naphthalene-1,22′-[20]oxa[13]thia[1,14]diazatetracyclo[14.7.2.0^3,6.0^19,24]pentacosa [8,16,18,24]tetraen]-15′-one 13′,13′-dioxide]
IC50 ([1]; Homo sapiens, OPM-2, 16 h): 2520 nM
IC50 [2]: 4.87 nM

C[C@@H]1[C@@H](C)C/C=C/[C@H](OCCO)[C@@H]2CC[C@H]2CN2C[C@@]3(CCCc4cc(Cl)ccc43)COc3ccc(cc32)C(=O)NS1(=O)=O [Example 516, (1S,3′R,6′R,7′S,8′E,11′S,12′R)-6-chloro-7′-(2-hydroxyethoxy)-11′,12′-dimethyl-3,4-dihydro-2H,15′H-spiro[naphthalene-1,22′-[20]oxa[13]thia[1,14]diazatetracyclo[14.7.2.0^3,6.0^19,24]pentacosa[8,16,18,24]tetraen]-15′-one 13′,13′-dioxide]
IC50 ([1]; Homo sapiens, OPM-2, 16 h): 72.5 nM
IC50 [2]: 0.27 nM

C[C@@H]1[C@@H](C)C/C=C/[C@H](OCCN2CC3(COC3)C2)[C@@H]2CC[C@H]2CN2C[C@@]3(CCCc4cc(Cl)ccc43)COc3ccc(cc32)C(=O)NS1(=O)=O [Example 518, (1S,3′R,6′R,7′S,8′E,11′S,12′R)-6-chloro-11′,12′-dimethyl-7′-(2-(2-oxa-6-azaspiro[3.3]hept-6-yl)ethoxy)-3,4-dihydro-2H,15′H-spiro[naphthalene-1,22′-[20]oxa[13]thia[1,14]diazatetracyclo[14.7.2.0^3,6.0^19,24]pentacosa [8,16,18,24]tetraen]-15′-one 13′,13′-dioxide]
IC50 ([1]; Homo sapiens, OPM-2, 16 h): 257 nM
IC50 [2]: 0.49 nM

C[C@@H]1[C@@H](C)C/C=C/[C@H](OCCN2C[C@@H]3C[C@H]2CO3)[C@@H]2CC[C@H]2CN2C[C@@]3(CCCc4cc(Cl)ccc43)COc3ccc(cc32)C(=O)NS1(=O)=O [Example 520, (1S,3′R,6′R,7′S,8′E,11′S,12′R)-6-chloro-11,12′-dimethyl-7′-(2-((1S,4S)-2-oxa-5-azabicyclo[2.2.1]hept-5-yl)ethoxy)-3,4-dihydro-2H,15′H-spiro[naphthalene-1,22′-[20]oxa[13]thia[1,14]diazatetracyclo[14.7.2.0^3,6.0^19,24]pentacosa [8,16,18,24]tetraen]-15′-one 13′,13′-dioxide 2,2,2-trifluoroacetic Acid]
IC50 ([1]; Homo sapiens, OPM-2, 16 h): 142 nM
IC50 [2]: 0.279 nM

C[C@@H]1[C@@H](C)C/C=C/[C@H](OCCN2C[C@H]3C[C@@H]2CO3)[C@@H]2CC[C@H]2CN2C[C@@]3(CCCc4cc(Cl)ccc43)COc3ccc(cc32)C(=O)NS1(=O)=O [Example 521, (1S,3′R,6′R,7′S,8′E,11′S,12′R)-6-chloro-11′,12′-dimethyl-7′-(2-((1R,4R)-2-oxa-5-azabicyclo[2.2.1]hept-5-yl)ethoxy)-3,4-dihydro-2H,15′H-spiro[naphthalene-1,22′-[20]oxa[13]thia[1,14]diazatetracyclo[14.7.2.0^3,6.0^19,24]pentacosa [8,16,18,24]tetraen]-15′-one 13′,13′-dioxide 2,2,2-trifluoroacetic Acid]
IC50 ([1]; Homo sapiens, OPM-2, 16 h): 166 nM
IC50 [2]: 0.291 nM

C[C@@H]1[C@@H](C)C/C=C/[C@H](OCCNC2COC2)[C@@H]2CC[C@H]2CN2C[C@@]3(CCCc4cc(Cl)ccc43)COc3ccc(cc32)C(=O)NS1(=O)=O [Example 522, (1S,3′R,6′R,7′S,8′E,11′5,12′R)-6-chloro-11′,12′-dimethyl-7′-(2-(3-oxetanylamino)ethoxy)-3,4-dihydro-2H,15′H-spiro[naphthalene-1,22′-[20]oxa[13]thia[1,14]diazatetracyclo[14.7.2.0^3,6.0^19,24]pentacosa [8,16,18,24]tetraen]-15′-one 13′,13′-dioxide 2,2,2-trifluoroacetic Acid]
IC50 ([1]; Homo sapiens, OPM-2, 16 h): 152 nM
IC50 [2]: 0.284 nM

C[C@@H]1COCCN1CCO[C@H]1/C=C/C[C@H](C)[C@@H](C)S(=O)(=O)NC(=O)c2ccc3c(c2)N(C[C@@H]2CC[C@H]21)C[C@@]1(CCCc2cc(Cl)ccc21)CO3 [Example 523, (1S,3′R,6′R,7′S,8′E,11′S,12′R)-6-chloro-11′,12′-dimethyl-7′-(2-((3R)-3-methyl-4-morpholinyl)ethoxy)-3,4-dihydro-2H,15′H-spiro[naphthalene-1,22′-[20]oxa[13]thia[1,14]diazatetracyclo[14.7.2.0^3,6.0^19,24]pentacosa [8,16,18,24]tetraen]-15′-one 13′,13′-dioxide]
IC50 ([1]; Homo sapiens, OPM-2, 16 h): 232 nM
IC50 [2]: 1.82 nM

C[C@@H]1[C@@H](C)C/C=C/[C@H](OCCN2CCS(=O)(=O)CC2)[C@@H]2CC[C@H]2CN2C[C@@]3(CCCc4cc(Cl)ccc43)COc3ccc(cc32)C(=O)NS1(=O)=O [Example 524, (1S,3′R,6′R,7′S,8′E,11′S,12′R)-6-chloro-7′-(2-(1,1-dioxido-4-thiomorpholinyl)ethoxy)-11′,12′-dimethyl-3,4-dihydro-2H,15′H-spiro[naphthalene-1,22′-[20]oxa[13]thia[1,14]diazatetracyclo[14.7.2.0^3,6.0^19,24]pentacosa [8,16,18,24]tetraen]-15′-one 13′,13′-dioxide]
IC50 ([1]; Homo sapiens, OPM-2, 16 h): 113 nM
IC50 [2]: 0.365 nM

COC1CN(CCO[C@H]2/C=C/C[C@H](C)[C@@H](C)S(=O)(=O)NC(=O)c3ccc4c(c3)N(C[C@@H]3CC[C@H]32)C[C@@]2(CCCc3cc(Cl)ccc32)CO4)C1 [Example 525, (1S,3′R,6′R,7′S,8′E,11′S,12′R)-6-chloro-7′-(2-(3-methoxy-1-azetidinyl)ethoxy)-11′,12′-dimethyl-3,4-dihydro-2H,15′H-spiro[naphthalene-1,22′-[20]oxa[13]thia[1,14]diazatetracyclo[14.7.2.0^3,6.0^19,24]pentacosa [8,16,18,24]tetraen]-15′-one 13′,13′-dioxide 2,2,2-trifluoroacetic Acid]
IC50 ([1]; Homo sapiens, OPM-2, 16 h): 186 nM
IC50 [2]: 0.416 nM

C[C@@H]1[C@@H](C)C/C=C/[C@H](OCCN2CCC2)[C@@H]2CC[C@H]2CN2C[C@@]3(CCCc4cc(Cl)ccc43)COc3ccc(cc32)C(=O)NS1(=O)=O [Example 526, (1S,3′R,6′R,7′S,8′E,11′S,12′R)-7′-(2-(1-azetidinyl)ethoxy)-6-chloro-11′,12′-dimethyl-3,4-dihydro-2H,15′H-spiro[naphthalene-1,22′-[20]oxa[13]thia[1,14]diazatetracyclo[14.7.2.0^3,6.0^19,24]pentacosa [8,16,18,24]tetraen]-15′-one 13′,13′-dioxide 2,2,2-trifluoroacetic Acid]
IC50 ([1]; Homo sapiens, OPM-2, 16 h): 862 nM
IC50 [2]: 1.06 nM

C[C@@H]1[C@@H](C)C/C=C/[C@H](OCCN2CC(F)C2)[C@@H]2CC[C@H]2CN2C[C@@]3(CCCc4cc(Cl)ccc43)COc3ccc(cc32)C(=O)NS1(=O)=O [Example 532, (1S,3′R,6′R,7′S,8′E,11′S,12′R)-6-chloro-7′-(2-(3-fluoro-1-azetidinyl)ethoxy)-11′,12′-dimethyl-3,4-dihydro-2H,15′H-spiro[naphthalene-1,22′-[20]oxa[13]thia[1,14]diazatetracyclo[14.7.2.0^3,6.0^19,24]pentacosa [8,16,18,24]tetraen]-15′-one 13′,13′-dioxide]
IC50 ([1]; Homo sapiens, OPM-2, 16 h): 156 nM
IC50 [2]: 0.427 nM

CC[N+](CC)(CC)CCO[C@H]1/C=C/C[C@H](C)[C@@H](C)S(=O)(=O)NC(=O)c2ccc3c(c2)N(C[C@@H]2CC[C@H]21)C[C@@]1(CCCc2cc(Cl)ccc21)CO3 [Example 533, 2-(((1S,3′R,6′R,7′S,8′E,11′S,12′R)-6-chloro-11′,12′-dimethyl-13′,13′-dioxido-15′-oxo-3,4-dihydro-2H-spiro[naphthalene-1,22′-[20]oxa[13]thia[1,14]diazatetracyclo[14.7.2.0^3,6.0^19,24]pentacosa [8,16,18,24]tetraen]-7′-yl)oxy)-N,N,N-triethylethanaminium 2,2,2-trifluoroacetate]
IC50 ([1]; Homo sapiens, OPM-2, 16 h): 14200 nM
IC50 [2]: 0.583 nM

C[C@@H]1[C@@H](C)C/C=C/[C@H](OCCN2CCOC[C@@H]2C)[C@@H]2CC[C@H]2CN2C[C@@]3(CCCc4cc(Cl)ccc43)COc3ccc(cc32)C(=O)NS1(=O)=O [Example 534, (1S,3′R,6′R,7′S,8′E,11′S,12′R)-6-chloro-11′,12′-dimethyl-7′-(2-((3S)-3-methyl-4-morpholinyl)ethoxy)-3,4-dihydro-2H,15′H-spiro[naphthalene-1,22′-[20]oxa[13]thia[1,14]diazatetracyclo[14.7.2.0^3,6.0^19,24]pentacosa [8,16,18,24]tetraen]-15′-one 13′,13′-dioxide]
IC50 ([1]; Homo sapiens, OPM-2, 16 h): 99.3 nM
IC50 [2]: 0.788 nM

CO[C@@H]1/C=C/[C@H](O)[C@@H]2CC[C@H]2CN2C[C@@]3(CCCc4cc(Cl)ccc43)COc3ccc(cc32)C(=O)NS(=O)(=O)CC1 [Example 536, (1S,3′R,6′R,7′S,8′E,10′S)-6-chloro-7′-hydroxy-10′-methoxy-3,4-dihydro-2H,15′H-spiro[naphthalene-1,22′-[20]oxa[13]thia[1,14]diazatetracyclo[14.7.2.0^3,6.0^19,24]pentacosa [8,16,18,24]tetraen]-15′-one 13′,13′-dioxide]
IC50 ([1]; Homo sapiens, OPM-2, 16 h): 21300 nM
IC50 [2]: 1.99 nM

COC(=O)CCC1(C)CCC=CC(O)C2CCC2CN2CC3(CCCc4cc(Cl)ccc43)COc3ccc(cc32)C(=O)NS1(=O)=O (stereo not shown) [Example 560]
IC50 ([1]; Homo sapiens, OPM-2, 16 h): 12200 nM
IC50 [2]: 4.83 nM

CC(C)OC(=O)C[C@@H]1[C@@H](C)C/C=C\[C@H](O)[C@@H]2CC[C@H]2CN2C[C@@]3(CCCc4cc(Cl)ccc43)COc3ccc(cc32)C(=O)NS1(=O)=O [Example 568]
IC50 [1]: 1310 nM
IC50 [2]: 1.1 nM

CC(C)OC(=O)C[C@@H]1[C@@H](C)/C=C\C[C@H](O)[C@@H]2CC[C@H]2CN2C[C@@]3(CCCc4cc(Cl)ccc43)COc3ccc(cc32)C(=O)NS1(=O)=O [Example 569]
IC50 ([1]; Homo sapiens, OPM-2, 16 h): 759 nM
IC50 [2]: 1.02 nM
